How the values were obtained:
[1] = system: NO-guanylyl cyclase pathway; assay: Cyclic nucleotide (cGMP) assay in tracheal rings; assay type: cell-based, guinea pigs; conditions: FIG. 2
Experimental: (§1) Male Hartley guinea pigs (500-600 g) were anesthetized by intraperitoneal injection of ketamine and xylazine (50 and 10 mg/kg, respectively). The heart and lungs were excised en bloc and tracheas were removed and placed in Krebs-Henseleit buffer composed of (mM): NaCl 118, KCl 5.4, NaH2PO4 1.01, NaHCO3 25, MgSO4 0.69, […], glucose 11.1, pH 7.4. Tracheas were then dissected free from surrounding fat and connective tissue and cut into 1-2-mm thick rings. The tracheal rings were then placed in buffer and continuously gassed with 95% O2 and 5% CO2.
Tracheal rings in Krebs-Heneseleit solution were exposed to a 5-100 μM of the test compound for 30-90 seconds. Reaction was terminated by the addition of ice-cold 10% trichloroacetic acid and rapidly frozen in ethanol-saturated dry ice. In the methylene blue experiment, rings were pre-exposed methylene blue, a guanylyl cyclase inhibitor, for 30 min. Tissues were then individually pulverized with a glass homogenizer and centrifuged at 8000×g for 5 min. The clear supernatant was extracted with water-saturated ether and assayed for cGMP using commercially available radioimmunoassay kits as described by the manufacturer (Amersham Biosciences, Piscataway, N.J.).

tracheal rings = assay: Relaxation studies on pre-contracted tracheal rings; assay type: cell-based, guinea pigs; conditions: FIG. 1; tracheal rings contracted with methacholine, histamine or leukotriene D4; compared with salbutamol and compound 2a
Experimental: The assays as described here are also described in, for example, U.S. Pat. No. 4,992,474 and Jansen et al.(1992) J. Pharmacol. Exptl. TherapeuticsI 261(1):154-160.
as §1
Tracheal rings were suspended on stainless steel hooks in 10 ml of oxygenated (95% O2, 5% CO2) Krebs-Henseleit buffer at 37° C. and connected to transducer (Experimetria Model) for recording changes in isometric force. The tracheal rings were equilibrated for 60 min under a load of 1 g and then primed twice by exposure to 100 μM methacholine. Tissues were contacted with methacholine, histamine, or leukotriene D4 at concentrations determined to approximately generate 50% of maximal tone, after which cumulative relaxation-response curves were constructed. […]

Substance: 5-(2-tert-Butylamino-1-S-nitroso-ethyl)-1,1,3,3-tetramethyl-isoindolin-2-yloxyl [compound 2]
- cGMP response of tracheal rings ([1]; 5-100 μM test compound for 30-90 seconds, radioimmunoassay, compared with control and salbutamol): elevates the production of cGMP
- cGMP response of tracheal rings in the presence of methylene blue (MB) ([1]; rings pre-exposed to methylene blue, a guanylyl cyclase inhibitor, for 30 min): reduces the efficacy of compound 2
- relaxation response (relax. %) versus log of concentration (tracheal rings): more effective relaxant compound than either salbutamol or the non-nitrosolated precursor of compound 2, compound 2a
